# Measurements from US12678453B2, “Aerosolized formulations of HIV protease inhibitors for the treatment of airway reflux” (The Medical College of Wisconsin, Inc., priority 2020, dated 2026).
# Biological target: T1, porcine pepsin A (Sus scrofa, UniProt P00791)
# T1 construct: purchased Worthington Biochemical Corporation
# Assay: co-crystallization of inhibitors with pepsin
# Assay type: binding
# Conditions: crystal structures of porcine pepsin complexes
# Experimental: Lyophilized porcine pepsin A (Worthington Biochemical Corporation) was dissolved in water at 200 mg/mL. All ligand stock solutions, except for saquinavir mesylate, were prepared as saturated solutions in DMSO in order to dissolve the maximal amount of ligand. The solutions were centrifuged and an appropriate volume of the supernatant was added to the pepsin solution so that final mixture contained 1.6% of the ligand stock by volume. The mixtures were incubated at room temperature for 1 h, centrifuged for 10 min at 31,000 rcf, and the supernatant was used for crystallization experiments. […] In order to maximize the solubility of saquinavir in the crystallization solution, we tested solutions from the CryoSol screen (Molecular Dimensions) (PMID 28626721). Mixture SM2 consisting of 37.5% v/v dioxane, 25% v/v DMSO, 12.5% v/v ethylene glycol, 12.5% v/v 1,2-propanediol, and 12.5% v/v glycerol allowed us to increase the amount of ligand solution in the co-crystallization mixture without damaging the protein. The saturated solution of saquinavir in SM2 was treated in the same manner as solutions of other ligands except that its amount in the solution with pepsin was increased to 5% by volume.
# The initial crystallization condition was identified by screening 200 mg/mL ligand-free porcine pepsin against the Salt RX screen (Hampton Research). Small bipyramid-shaped crystals were obtained in 3.5 M ammonium chloride and 0.1 M sodium acetate trihydrate pH 4.6 after 1 week of incubation at room temperature. […] Diffraction quality crystals formed after 2-7 days from hanging drops containing 2 μL of pepsin at concentrations of 180-210 mg/mL and 1 μL of a microseed solution serially diluted 10-100× above a well solution containing 3 M-4 M ammonium chloride and 0.1 M sodium acetate trihydrate pH 4.6. The crystals were shaped as triangular bi-pyramids with dimensions approximately 200×100×100 μm. Crystals were cryoprotected by soaking them in 30% w/v glucose, 5 M ammonium chloride and 0.1 M sodium acetate trihydrate pH 4.6 and then plunging them in liquid nitrogen.
# The complex with saquinavir was crystallized in the same manner except that we used 0.1 M acetic acid instead of 0.1 M sodium acetate trihydrate pH 4.6 because this change allowed us to grow large crystals without the need for a microseeding solution. Cryoprotection was accomplished using 30% w/v glucose, 3 M ammonium chloride and 0.1 M acetic acid, followed by plunging in liquid nitrogen.
# Pepsin·APV: A 1.9 Å diffraction data set was collected at the Life Sciences Collaborative Access Team beamline (LS-CAT) 21-ID-F at the Advanced Photon Source (APS) equipped with a MAR 300 CCD detector using a 50×50 μm beam at a wavelength of 0.97872 Å. […]
# T1 sequence (P00791 60-385): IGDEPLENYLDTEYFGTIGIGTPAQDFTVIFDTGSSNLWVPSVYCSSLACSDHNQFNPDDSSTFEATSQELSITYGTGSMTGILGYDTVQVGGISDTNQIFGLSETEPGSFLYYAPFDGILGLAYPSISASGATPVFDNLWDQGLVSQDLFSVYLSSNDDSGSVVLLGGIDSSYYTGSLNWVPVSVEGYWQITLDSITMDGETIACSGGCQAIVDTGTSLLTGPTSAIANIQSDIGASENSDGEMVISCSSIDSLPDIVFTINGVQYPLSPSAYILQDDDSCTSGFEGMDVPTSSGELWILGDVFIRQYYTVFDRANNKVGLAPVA
row,SMILES,binding at the active site of pepsin by co-crystallization
1,"CC(C)CN(C[C@@H](O)[C@H](Cc1ccccc1)NC(=O)O[C@H]1CCOC1)S(=O)(=O)c1ccc(N)cc1 [amprenavir, [(3S)-oxolan-3-yl] N-[(2S,3R)-4-[(4-aminophenyl)sulfonyl-(2-methylpropyl)amino]-3-hydroxy-1-phenylbutan-2-yl]carbamate]",bind in the pepsin active site
2,"CC(C)CN(C[C@@H](O)[C@H](Cc1ccccc1)NC(=O)O[C@H]1CO[C@H]2OCC[C@H]21)S(=O)(=O)c1ccc(N)cc1 [darunavir, [(3a S,4R,6aR)-2,3,3a,4,5,6a-hexahydrofuro[2,3-b]furan-4-yl] N-[(2S,3R)-4-[(4-aminophenyl)sulfonyl-(2-methylpropyl)amino]-3-hydroxy-1-phenylbutan-2-yl]carbamate]",bind at the active site of pepsin
3,"CC(C)c1nc(CN(C)C(=O)N[C@H](C(=O)N[C@@H](Cc2ccccc2)C[C@H](O)[C@H](Cc2ccccc2)NC(=O)OCc2cncs2)C(C)C)cs1 [ritonavir, 1,3-thiazol-5-ylmethyl N-[(2S,3 S,5S)-3-hydroxy-5-[[(2S)-3-methyl-2-[[methyl-[(2-propan-2-yl-1,3-thiazol-4-yl)methyl]carbamoyl]amino]butanoyl]amino]-1,6-diphenylhexan-2-yl]carbamate]",bind at the active site of pepsin
4,"CC(C)(C)NC(=O)[C@@H]1C[C@@H]2CCCC[C@@H]2CN1C[C@@H](O)[C@H](Cc1ccccc1)NC(=O)[C@H](CC(N)=O)NC(=O)c1ccc2ccccc2n1 [saquinavir, (2S)—N-[(2S,3R)-4-[(3 S,4aS,8aS)-3-(tert-butylcarbamoyl)-3,4,4a,5,6,7,8,8a-octahydro-1H-isoquinolin-2-yl]-3-hydroxy-1-phenylbutan-2-yl]-2-(quinoline-2-carbonylamino)butanediamide]",bind at the active site of pepsin
